In patent publication US11433040B2, “Methods for modifying endoplasmic reticulum processing of protein” (priority 2017, dated 2022):
Where “and” joins values, the source holds several entries; their conditions need not be identical. Identical values can stand only once.

How the values were obtained:
[1] = system: G544V-mutant LDL receptor; assay: Cell-based trafficking assay: restoration of glycosylation/trafficking of mutant LDL receptor in CHO cells; design: species or system human; conditions: for EC50: CHO cells expressing G544V-mutant LDL receptor, 2 hours at 37° C., value ± standard error, read-out: EC50, acquisition of mutant LDL receptor glycosylation
Method: (§1) T-Rex-CHO-K1 cloned cell lines expressing wild-type and mutant LDL receptor were cultured as described in Sorensen et al. (2006) and Tveten et al. (2007), and according to the manufacturer's protocols (Thermo Fisher Scientific). The expression in CHO cells of G544V-mutant or wildtype LDL receptor protein was induced with 1 μg/mL tetracycline for 24 h prior to experiments with 4-PBA or 4-PBA analogs (Tveten et al. (2007)). To compare pharmacological potency of 4-PBA analogs, cells were incubated with the compounds for 2 hours at 37° C. in 12-well 22 mm plates (Corning Costar #3513). For experiments concerning the extracellular secretion of GRP94 (FIG. 5), the incubations with 4-PBA were extended to 24 hours. Cells were broken in lysis buffer (1% (v/v) Triton X-100, 150 mM NaCl, 10 mM EDTA, 50 mM Tris-HCl pH 7.5) and cleared by centrifugation (15,000 g for 15 minutes). Cellular protein concentration was measured using “Protein Assay Kit II” (Bio-Rad) with bovine serum albumin as standard. Lysates were added to Laemmli sample buffer (New England BioLabs) containing 130 mM dithiothreitol and heated for 15 min at 55° C. Cell medium (containing secreted proteins) was added to Laemmli sample buffer containing 5% β-mercaptoethanol and boiled for 5 min. Samples were run on 4-15% Tris/HCl Criterion gels (Bio-Rad) followed by immunoblotting.
Chemiluminescence signals from western blots for the glycosylated (160 kDa) form of G544V mutant LDL receptor were quantified as a percentage of total LDL receptor protein (glycosylated+unglycosylated bands). Data at high concentrations of 4-PBA analogs, which show inhibition of LDL receptor trafficking, were omitted. Data from individual experiments were normalized (to obtain maximal response=100%), so that data from replicate experiments (n=4-5) could be averaged. Logistic fitting to the dose-response data was carried out with program Ultrafit (Elsevier Biosoft). […] Data from fluorescence polarization titrations (FIGS. 6(E)-6(G)) were analyzed with Ultrafit, and IC50 values were determined from plots using nonlinear curve fitting. […] IC50 values were converted to true affinities, Ki, using the approach of (Nikolovska-Coleska et al., 2004), and these are used in the scatter plot, FIG. 6(H).
A system comprising a CHO (T-Rex-CHO-K1) cell clone expressing the G544V-mutant human LDL receptor under a tetracycline-inducible promoter was used (see General Methods) to measure the packaging of resident proteins and a misfolded mutant LDL receptor into COPII vesicles budded from permeabilized cells. The G544V-mutant human LDL receptor is a naturally occurring transport-defective (class 2) mutant LDL receptor with a point mutation in the luminal β-propeller domain that causes ER trapping with chaperone association. 4-PBA has been show to restore transportation of G544V-mutant human LDL receptor to the plasma membrane (Tveten et al. (2007)).
CHO cells expressing G544V-mutant LDL receptor were incubated with the indicated concentrations of 4-PBA analogs for 2 hours at 37° C. Cell lysates were analyzed by immunoblotting for the appearance of 160 kDa mature glycosylated LDL receptor (labeling indicates the position of 160 kDa mature glycosylated and 120 kDa precursor forms of LDL receptor). Gamma correction was applied to the immunoblot images.

[2] = biological target: T1, human Sec24a (Homo sapiens, UniProt O95486); assay: Fluorescence polarization assay: displacement of 5-Fam-[…] from Sec24a; assay type: binding; conditions: fluorescence polarization at 22° C.; value ± standard error; read-out: IC50, displacement of fluorescent probe 5-Fam-QIYTDIEANR from Sec24a
T1 construct: His6 (TEV-cleavable) (N, cleaved yes); made in house; host or cells: High Five insect cells (baculovirus)
T1 sequence (O95486 341-1093): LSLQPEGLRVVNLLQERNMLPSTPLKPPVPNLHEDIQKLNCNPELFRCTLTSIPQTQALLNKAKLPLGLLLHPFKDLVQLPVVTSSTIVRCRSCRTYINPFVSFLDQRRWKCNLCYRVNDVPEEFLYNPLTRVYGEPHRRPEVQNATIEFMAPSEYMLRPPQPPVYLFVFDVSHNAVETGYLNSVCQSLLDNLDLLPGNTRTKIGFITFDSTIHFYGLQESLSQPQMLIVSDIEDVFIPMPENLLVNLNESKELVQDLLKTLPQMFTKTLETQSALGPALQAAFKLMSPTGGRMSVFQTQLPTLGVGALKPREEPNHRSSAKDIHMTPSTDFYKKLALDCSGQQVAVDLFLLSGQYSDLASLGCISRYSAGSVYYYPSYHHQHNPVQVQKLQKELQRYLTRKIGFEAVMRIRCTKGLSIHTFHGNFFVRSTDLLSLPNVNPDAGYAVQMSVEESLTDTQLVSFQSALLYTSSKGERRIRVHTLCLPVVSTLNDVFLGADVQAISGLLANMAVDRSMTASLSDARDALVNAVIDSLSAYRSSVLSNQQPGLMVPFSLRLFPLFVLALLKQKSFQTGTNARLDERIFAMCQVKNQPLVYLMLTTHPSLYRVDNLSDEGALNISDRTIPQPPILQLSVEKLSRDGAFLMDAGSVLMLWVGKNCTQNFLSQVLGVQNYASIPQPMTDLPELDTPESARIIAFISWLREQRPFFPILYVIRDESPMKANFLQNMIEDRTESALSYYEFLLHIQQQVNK

[3] = biological target: T2, COPII coat proteins (Sec23a/24d) (Homo sapiens, UniProt O94855); assay: In vitro COPII budding assay with permeabilized CHO cells; assay type: biochemical, H. sapiens; conditions: 10 mM 4-PBA
T2 construct: Sec23a/Sec24d (full-length protein) for COPII budding assays; made in house; host or cells: High Five insect cells (Sec23a/24d, Sec13a/31a); E. coli BL21(DE3) (Sar1a); added to digitonin-permeabilized T-Rex-CHO-K1 cells
Method: In vitro COPII budding reactions used permeabilized cells prepared from the T-Rex-CHO-K1 parent line and from the clone that expresses mutant LDL receptor. Permeabilization was carried out as described in Mancias and Goldberg (2008) with modifications. Two culture dishes (150 mm) of cells were prepared with cells at no greater than 60% confluence. Cells were washed with 20 ml PBS at 37° C. and then trypsinized with 2 ml of Trypsin-EDTA (0.05%, Gibco) for 1 min at 37° C.; 100 μl of Soybean Trypsin Inhibitor (2 mg/ml; Sigma) was added to each culture plate. Next, 5.5 ml ice-cold KHM buffer (110 mM KOAc, 20 mM Hepes pH 7.2, 2 mM magnesium acetate) was added per plate, and cells were transferred to a 15 ml Falcon tube and pelleted gently (250 g for 3 min at 4° C.). The supernatant was aspirated and the cells re-suspended in 6 ml ice-cold KHM buffer. To permeabilize the cells, 6 μl digitonin stock solution (40 mg/ml in dimethyl sulfoxide) was added, cells were mixed by inversion and incubated on ice for 5 minutes. To terminate permeabilization, cells were diluted to 14 ml with KHM buffer and immediately pelleted at 250 g for 3 min at 4° C. […] The protein concentration was measured using protein assay kit (Bio-Rad) with BSA as standard; routinely, the measurement is in the range 4-5 mg/ml. […]

[4] = system: GRP94; assay type: cell-based
Method: as §1
[…] The presence of KDEL tagged (SEQ ID NO: 3) luminal chaperone GRP94 inside and outside cells was measured.

[5] = biological target: T3, Sec23a/Sec24a⋅Sec22b (Homo sapiens, UniProt O95486); assay: Crystal soaking and X-ray difference Fourier maps; assay type: binding; conditions: crystals soaked at 1, 15 and 50 mM 4-PBA
T3 construct: His6 (TEV-cleavable) (N, cleaved yes); made in house; host or cells: High Five insect cells (Sec23a/Sec24a); E. coli (Sec22b)
Method: The Sec23a/Sec24a⋅Sec22b complex was crystallized as described in Mancias and Goldberg (2007) from a solution comprising 10% (w/v) PEG 4000, 500 mM Na acetate and 50 mM Tris-HCl pH 7.9. Crystals were transferred into a soaking buffer of 10% (w/v) PEG 4000, 600 mM NaCl, 50 mM Tris-HCl buffer, pH 7.9. Either 4-PBA (0-50 mM) or 5 mM ΦC signal peptide was added to the crystal containing solution, and the ligand soaking proceeded for five hours at 22° C. Crystals were then transferred to an equivalent ligand-containing buffer with additional 24% ethylene glycol cryo-protectant, and were flash frozen in liquid nitrogen. Crystals treated in this manner diffracted synchrotron X-rays to 2.5-2.8 Å resolution.
X-ray diffraction data were collected at 0.979 Å wavelength on beamline ID-24C or ID-24E of the Advanced Photon Source, Argonne National Laboratory. Data were processed with the program HKL2000 (Otwinowski and Minor (1997); see Tables 1 and 2). Structure refinement was carried out using Phenix (Adams et al. (2010)), initially by rigid-body improvement, followed by positional refinement, based on the published coordinates of Sec23a/Sec24a⋅Sec22b (PDB 2NUT; Mancias and Goldberg (2007)). Models for […] signal peptides or 4-PBA were not included in refinements prior to the creation of FIG. 1, to eliminate potential phase bias. […]

T2 sequence (O94855 whole entry): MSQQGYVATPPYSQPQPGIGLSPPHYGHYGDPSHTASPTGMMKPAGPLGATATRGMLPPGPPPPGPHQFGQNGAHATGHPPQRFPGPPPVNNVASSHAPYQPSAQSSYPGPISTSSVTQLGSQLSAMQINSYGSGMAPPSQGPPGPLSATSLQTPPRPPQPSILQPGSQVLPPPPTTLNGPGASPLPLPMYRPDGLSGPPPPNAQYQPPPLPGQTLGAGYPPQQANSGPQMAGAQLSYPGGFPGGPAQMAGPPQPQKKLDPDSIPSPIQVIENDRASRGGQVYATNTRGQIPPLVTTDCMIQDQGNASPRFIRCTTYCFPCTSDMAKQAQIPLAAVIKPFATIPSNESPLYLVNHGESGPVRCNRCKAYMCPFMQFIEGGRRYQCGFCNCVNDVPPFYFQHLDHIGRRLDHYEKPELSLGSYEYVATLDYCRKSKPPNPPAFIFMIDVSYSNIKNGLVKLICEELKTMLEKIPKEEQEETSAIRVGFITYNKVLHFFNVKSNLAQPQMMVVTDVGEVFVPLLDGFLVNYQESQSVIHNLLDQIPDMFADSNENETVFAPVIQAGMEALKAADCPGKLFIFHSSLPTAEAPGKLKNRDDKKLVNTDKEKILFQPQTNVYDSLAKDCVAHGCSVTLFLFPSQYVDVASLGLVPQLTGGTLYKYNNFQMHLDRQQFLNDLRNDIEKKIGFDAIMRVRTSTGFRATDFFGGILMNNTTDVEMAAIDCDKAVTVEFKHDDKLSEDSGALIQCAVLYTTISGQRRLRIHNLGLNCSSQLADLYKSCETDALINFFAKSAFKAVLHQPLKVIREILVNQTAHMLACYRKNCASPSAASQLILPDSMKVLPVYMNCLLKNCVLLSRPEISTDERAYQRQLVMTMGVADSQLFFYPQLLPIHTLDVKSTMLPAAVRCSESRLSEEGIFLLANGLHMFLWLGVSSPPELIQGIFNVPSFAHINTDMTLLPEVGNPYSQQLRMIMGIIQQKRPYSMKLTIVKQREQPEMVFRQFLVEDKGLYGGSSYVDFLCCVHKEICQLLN
T2 sequence (Q15436 whole entry partner): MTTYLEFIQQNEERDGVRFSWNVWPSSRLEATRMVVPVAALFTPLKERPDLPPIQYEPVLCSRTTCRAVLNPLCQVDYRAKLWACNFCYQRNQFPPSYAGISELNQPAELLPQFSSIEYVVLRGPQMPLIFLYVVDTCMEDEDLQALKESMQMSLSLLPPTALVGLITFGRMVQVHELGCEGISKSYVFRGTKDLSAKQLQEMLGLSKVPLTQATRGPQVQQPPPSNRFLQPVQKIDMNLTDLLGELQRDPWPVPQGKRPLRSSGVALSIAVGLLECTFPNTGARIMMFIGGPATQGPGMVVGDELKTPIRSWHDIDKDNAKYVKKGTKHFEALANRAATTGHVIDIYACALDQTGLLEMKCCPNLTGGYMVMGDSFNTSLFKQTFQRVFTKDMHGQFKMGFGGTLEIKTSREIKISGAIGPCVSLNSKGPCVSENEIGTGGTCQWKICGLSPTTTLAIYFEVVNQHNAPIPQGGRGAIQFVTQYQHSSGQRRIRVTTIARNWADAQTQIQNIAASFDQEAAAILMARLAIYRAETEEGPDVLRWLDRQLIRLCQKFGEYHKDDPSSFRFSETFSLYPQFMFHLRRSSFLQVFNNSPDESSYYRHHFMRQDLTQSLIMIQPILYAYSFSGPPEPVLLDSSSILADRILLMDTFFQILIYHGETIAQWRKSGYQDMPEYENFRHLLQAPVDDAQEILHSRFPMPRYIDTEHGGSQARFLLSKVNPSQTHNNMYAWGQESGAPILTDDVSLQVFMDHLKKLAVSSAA
T3 sequence (Q15436 whole entry partner, one chain of several): as the sequence (Q15436 whole entry partner) above
T3 sequence (O75396 1-195 partner limits assumed, one chain of several): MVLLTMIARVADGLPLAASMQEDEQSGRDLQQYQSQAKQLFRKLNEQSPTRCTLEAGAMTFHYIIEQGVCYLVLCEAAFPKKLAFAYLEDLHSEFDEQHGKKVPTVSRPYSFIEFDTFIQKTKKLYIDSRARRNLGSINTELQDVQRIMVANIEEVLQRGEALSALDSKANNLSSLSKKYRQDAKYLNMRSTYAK

Row | SMILES | EC50 [1] | IC50 [2] [mM] | further results
1 | O=C(O)CCc1ccccc1 [3-PPA, 3-phenylpropionate] | 7.48 ± 0.68 mM | 4.11 ± 0.34 | 
2 | O=C(O)CCCc1ccccc1 [4-PBA, 4-phenylbutyrate] | 6.37 mM and 6.4 mM | 3.66 ± 0.22 | restored trafficking of mutant LDL receptor (share of the receptor) ([1]; 10 mM 4-PBA applied to cells): ≤ 25%; packaging of ER residents and mutant LDL receptor into COPII vesicles [3]: significant enrichment; reduction in the packaging rate of p24 proteins and ERGIC-53 [3]: 50%; secretion of GRP94 from CHO cells ([4]; 0-40 mM 4-PBA, 24 hours): dose-dependent; cell lysis ([4]; 45 mM 4-PBA, highest concentration): cell lysis was detected; 4-PBA concentration of maximal GRP94 secretion ([4]; 24 hours at 37° C., ER stressed and ER unstressed CHO cells): 20 mM; 4-PBA concentration at which unfolded protein response (UPR) was attenuated ([4]; CHO cells expressing G544V-mutant LDL receptor, 24 hours at 37° C.): 10 to 20 mM; binding to the B site of Sec24a [5]: clear evidence for binding
3 | O=C(O)CCCCc1ccccc1 [5-PVA, 5-phenylvalerate] | 3.36 ± 0.42 mM | 0.99 ± 0.08 | 
4 | O=C(O)CCCc1ccc(O)cc1 [Hydroxy-PBA, 4-(4-hydroxyphenyl)butyrate] | 10.6 ± 0.4 mM | 5.04 ± 0.69 | 
5 | O=C(O)CCc1ccc(O)cc1 [Hydroxy-PPA, 3-(4-hydroxyphenyl)propionate] | 21.7 ± 1.03 mM | 9.22 ± 0.94 | 
6 | COc1ccc(CCCC(=O)O)cc1 [Methoxy-PBA, 4-(4-methoxyphenyl)butyrate] | 8.63 ± 0.98 mM | 4.14 ± 0.7 | 
7 | Cc1ccc(CCCC(=O)O)cc1 [Tolyl-BA, 4-(4-tolyl)butyrate] | 4.89 ± 0.24 mM | 1.7 ± 0.16 | 
